One data set has as its target T1, IGF1R (Homo sapiens, UniProt P08069).
T1 construct: 6×His- or GST-tagged kinase domain fragments of the corresponding RTKs expressed in baculovirus system; host or cells: baculovirus system
Description: IGF1R kinase assay. The class given is biochemical. The note with it: Table 2; read-out: Enzymatic IGF1R IC50. A digest of the protocol: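 The AlphaScreen PT66 format of the NPM-ALK assay was applied with minor modifications to commercial recombinant His/GST-tagged kinase domains. Compound (0.078125–40 μM) was incubated 30 min at RT with 10 μM ATP and biotinylated poly-GT in Tris pH 7.5/MgCl2/MnCl2/DTT buffer, then beads 60 min. Read at 520–680 nm; IC50 and Ki derived.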

For a further data set, the target named is ALK (Homo sapiens, UniProt Q9UM73). Description: ALK kinase assay (Kinase-Glo / AlphaScreen, purified NPM-ALK).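 Also: recombinant baculovirus-expressed ALK kinase domain, activity read either as leftover ATP by Kinase-Glo luminescence or as poly(Glu-Tyr) phosphorylation by anti-phosphotyrosine AlphaScreen proximity signal.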 On the set-up: fused to the complete intracytoplasmic portion of ALK containing the functional tyrosine kinase domain; 6xHis; made in house; host or cells: insect cells; the other entry of the earlier key: NPM1 (P06748, Nucleophosmin). The format is biochemical. The note with it: Table 2; read-out: Enzymatic ALK IC50. In general terms: Kinase-Glo measures the ATP left after a reaction by luminescence.
Chain of ALK (Q9UM73 with tags, fused parts or gaps): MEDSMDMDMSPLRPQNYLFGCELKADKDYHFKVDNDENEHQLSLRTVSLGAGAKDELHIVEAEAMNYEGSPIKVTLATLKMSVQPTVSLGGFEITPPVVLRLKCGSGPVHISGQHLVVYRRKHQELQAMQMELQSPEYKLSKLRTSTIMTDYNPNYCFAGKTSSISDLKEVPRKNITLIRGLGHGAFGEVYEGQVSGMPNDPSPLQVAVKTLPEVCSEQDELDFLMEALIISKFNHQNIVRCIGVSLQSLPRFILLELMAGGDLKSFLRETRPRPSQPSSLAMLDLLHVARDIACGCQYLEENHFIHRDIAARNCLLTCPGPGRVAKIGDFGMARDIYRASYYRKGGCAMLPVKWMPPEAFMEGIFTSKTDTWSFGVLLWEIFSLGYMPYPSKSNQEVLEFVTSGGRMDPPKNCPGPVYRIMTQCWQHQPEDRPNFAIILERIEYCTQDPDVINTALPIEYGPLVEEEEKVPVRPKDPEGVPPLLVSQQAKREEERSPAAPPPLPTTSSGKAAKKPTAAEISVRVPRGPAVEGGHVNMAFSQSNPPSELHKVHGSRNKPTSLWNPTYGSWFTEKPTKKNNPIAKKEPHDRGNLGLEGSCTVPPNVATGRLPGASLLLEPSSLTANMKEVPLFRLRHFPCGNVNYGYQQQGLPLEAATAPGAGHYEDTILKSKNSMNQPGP

The test system of a further data set is H929. The experiment in a line: Cell line IC50, MM (IGF1R) H929. The class given is cell-based. The settings on record: Homo sapiens, NCI-H929; Table 2, cell line.
Another data set has as its system Karpas299. The experiment in a line: Cell proliferation inhibition, ALCL line Karpas299. The class given is cell-based. The settings on record: Homo sapiens, KARPAS-299; Table 2, cell line; read-out: IC50 ALCL (ALK) Karpas299. The source says: The IL-3-dependent lymphoid cell line BaF3 or BaF3 rendered IL-3-independent by engineered expression of NPM-ALK were used in parallel to test each candidate inhibitor. Control wells contained DMSO solvent without test compound. Specific inhibition of ALK signaling is indicated in the assay by impairment of NPM-ALK-expressing BaF3 cell growth without alterations in the growth of parental BaF3. This colorimetric assay of cell proliferation and viability is based upon reduction of the yellow monotetrazolium salt XTT to a water-soluble orange formazan dye, a reaction catalyzed by mitochondrial dehydrogenases in living cells only (Cell Proliferation Kit II, Cat. #1 465 015, Roche Biochemicals). In addition to testing compounds for their ability to impair the growth of BaF3 cells engineered to express NPM-ALK, the NPM-ALK-positive human lymphoma cell line Karpas-299 (Deutsche Sammlung von Mikroorganismen and Zellkulturen GmbH (DSMZ) no. ACC 31), the human BCR-ABL-positive chronic myeloid leukemia cell line K562 (American Type Culture Collection (ATCC) no. CCL-243), and the human T-cell leukemia line Jurkat (DSMZ no. ACC 282) were tested in these assays.
Each compound stock in 100% DMSO was first diluted using 8% DMSO/culture medium to produce a working stock of 250 μM compound. This working stock was then used to perform serial 1:1 dilutions (i.e., 125 μM, 62.5 μM, 31.25 μM, 15.625 μM, 7.8125 μM, and 3.90625 μM) using DMSO-free culture medium. Twenty (20) μL of each of these dilutions was then added to the cells (2×10^4 cells in 80 μL culture medium per 96-well) to obtain the final test compound concentrations (i.e., 25 μM, 12.5 μM, 6.25 μM, 3.125 μM, 1.5625 μM, and 0.78125 μM).
(§1) Cell proliferation inhibition assays were run for compound (II) with the five target NPM-ALK-dependent ALCL cell lines (Karpas 299, SuDHL-1, JB6, SupM2, UConn) and 12 unrelated cell lines (HEK293, CHO-K1, MCF7, HepG2, H292, H520, H1581, H596, H522, CHA-GO-K1, UMC-11, SK-MES1). […] The pronounced target cell-killing effect is also observed (molecular mechanisms to be determined).

In another data set the test system is WI38. Description: Cell line IC50, control WI38. The class given is cell-based. The note with it: Homo sapiens, WI-38; Table 2, cell line.
For a further data set, the system named is JB6. The experiment in a line: Cell proliferation inhibition, ALCL line JB6. The note with it: Table 2, cell line, read-out: IC50 ALCL (ALK) JB6. The format is cell-based.
From the text: as §1

In another data set the test system is UConn. The experiment in a line: Cell proliferation inhibition, ALCL line UConn. The format is cell-based. The settings on record: Table 2, cell line; read-out: IC50 ALCL (ALK) Uconn.
From the text: as §1

A further data set has as its target hERG (Homo sapiens, UniProt Q12809). The experiment in a line: hERG Inhibition (Table 6E). The format is cell-based. On the set-up: expressed in transfected cells; unit not given here. How it is done: Compound (II) was initially tested at 1 μM concentration using a standard patch clamp protocol (Cerep ADMET Study 13170). The hERG channel was expressed in a human embryonic kidney (HEK293) cell line that lacks endogenous hERG channels. […] We have retested compound (II) in hERG assay in a range of lower concentrations to estimate IC50 of hERG inhibition more precisely (Qpatch 16 automated whole-cell patch clamp protocol in CHO-K1 cell line stably expressing hERG, Cerep hERG Study 13292). […] This kind of potency in hERG inhibition should not represent a significant clinical problem since the high degree of hERG inhibition would occur only at the compound concentrations above the expected therapeutic levels.
A general note: The hERG channel carries a current that helps repolarise heart muscle cells.

Each structure is given as a SMILES string. Bounds are passed on as bounds.

T1 sequence (P08069 999-1274 limits assumed): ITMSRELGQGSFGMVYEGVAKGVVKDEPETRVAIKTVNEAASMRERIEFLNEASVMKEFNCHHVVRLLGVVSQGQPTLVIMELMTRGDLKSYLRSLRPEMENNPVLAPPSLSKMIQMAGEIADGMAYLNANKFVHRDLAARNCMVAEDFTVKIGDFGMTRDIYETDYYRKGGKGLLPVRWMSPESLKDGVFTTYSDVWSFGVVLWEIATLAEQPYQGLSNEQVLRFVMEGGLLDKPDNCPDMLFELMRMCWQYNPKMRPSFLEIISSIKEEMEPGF
Chain of hERG (Q12809 whole entry): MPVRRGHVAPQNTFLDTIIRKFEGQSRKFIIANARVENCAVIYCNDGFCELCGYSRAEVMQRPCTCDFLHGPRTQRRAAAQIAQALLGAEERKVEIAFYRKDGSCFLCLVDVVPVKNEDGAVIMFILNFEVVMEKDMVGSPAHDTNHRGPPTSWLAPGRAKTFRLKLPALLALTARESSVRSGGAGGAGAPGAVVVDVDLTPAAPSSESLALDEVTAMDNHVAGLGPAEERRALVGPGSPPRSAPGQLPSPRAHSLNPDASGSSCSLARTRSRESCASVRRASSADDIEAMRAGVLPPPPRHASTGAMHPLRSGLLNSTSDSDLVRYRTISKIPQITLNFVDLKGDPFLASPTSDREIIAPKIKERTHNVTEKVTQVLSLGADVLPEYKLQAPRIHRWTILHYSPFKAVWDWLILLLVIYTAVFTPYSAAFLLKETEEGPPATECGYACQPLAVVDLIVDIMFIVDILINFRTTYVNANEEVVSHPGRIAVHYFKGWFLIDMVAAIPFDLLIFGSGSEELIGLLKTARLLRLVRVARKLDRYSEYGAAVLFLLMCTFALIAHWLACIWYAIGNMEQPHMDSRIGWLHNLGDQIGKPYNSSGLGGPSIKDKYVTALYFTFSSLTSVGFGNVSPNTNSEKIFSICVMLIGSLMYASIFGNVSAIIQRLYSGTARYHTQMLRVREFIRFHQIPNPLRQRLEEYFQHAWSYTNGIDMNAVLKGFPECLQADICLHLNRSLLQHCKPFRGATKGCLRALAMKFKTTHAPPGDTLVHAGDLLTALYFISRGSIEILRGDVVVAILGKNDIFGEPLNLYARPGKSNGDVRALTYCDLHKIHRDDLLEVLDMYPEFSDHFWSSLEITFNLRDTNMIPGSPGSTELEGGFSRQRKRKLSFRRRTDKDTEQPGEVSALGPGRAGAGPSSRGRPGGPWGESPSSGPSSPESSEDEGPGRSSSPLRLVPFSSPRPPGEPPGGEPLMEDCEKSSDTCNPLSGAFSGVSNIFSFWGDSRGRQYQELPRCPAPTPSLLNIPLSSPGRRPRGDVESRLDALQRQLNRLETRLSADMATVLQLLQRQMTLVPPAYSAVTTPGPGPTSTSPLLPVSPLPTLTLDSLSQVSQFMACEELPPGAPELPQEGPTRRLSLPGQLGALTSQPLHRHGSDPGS

By IC50 is commonly meant the concentration needed to halve the response being measured. In the case of `Cc1ccc(F)cc1C[C@H](C)Nc1cc[nH]c(=O)c1-c1nc2cc3c(cc2[nH]1)C(=O)N(CCN1CCCC1)C3` [drawing 350], the IC50 on IGF1R was 100 to 250 nM; on ALK, under 10 nM; with H929 it was 250 to 1000 nM; with Karpas299, under 10 nM; in the data set on WI38 it was over 1000 nM; with JB6, under 10 nM. Moreover, the IC50 in the data set on UConn was 10 to 100 nM.

On to `Cc1ccc(F)cc1C[C@H](C)Nc1cc[nH]c(=O)c1-c1nc2c(C)c3c(cc2[nH]1)CN(CCN1CCCC1)C3=O` [drawing 351], for which the 50% inhibitory concentration (IC50) is 100 to 250 nM at IGF1R; under 10 nM on ALK; 250 to 1000 nM with H929; under 10 nM with Karpas299; over 1000 nM in the data set on WI38; under 10 nM in the data set on JB6. Further, the IC50 in the data set on UConn lay within 10 to 100 nM.

Consider `C[C@@H](Cc1c(F)c(F)cc(F)c1F)Nc1cc[nH]c(=O)c1-c1nc2cc3c(cc2[nH]1)CN(CCN1CCCC1)C3=O` [drawing 352], for which the IC50 on IGF1R is over 1000 nM; at ALK it was under 10 nM; in the data set with H929, 250 to 1000 nM; with Karpas299, under 10 nM; in the data set on WI38 it was over 1000 nM; in the data set on JB6, under 10 nM. Besides, the IC50 with UConn was in the range of 10 to 100 nM.

Regarding `C[C@@H]1CCCN1CCN1Cc2cc3[nH]c(-c4c(N[C@@H](C)Cc5cc(F)cc(F)c5F)cc[nH]c4=O)nc3cc2C1=O` [drawing 353], the IC50 at IGF1R was over 1000 nM; on ALK, under 10 nM; in the data set on H929, 250 to 1000 nM; with Karpas299, under 10 nM; with WI38, over 1000 nM; in the data set on JB6, under 10 nM. Also, the IC50 in the data set on UConn was 10 to 100 nM.

Regarding `Cc1ccc(F)cc1C[C@H](C)Nc1cc[nH]c(=O)c1-c1nc2cc3c(cc2[nH]1)CN(CCN1CCC[C@H]1C)C3=O` [drawing 354], the IC50 is over 1000 nM on IGF1R; 10 to 100 nM at ALK; 250 to 1000 nM in the data set on H929; 10 to 100 nM in the data set on Karpas299; over 1000 nM in the data set with WI38; 10 to 100 nM in the data set with JB6. The IC50 with UConn is 10 to 100 nM.

On to `CNCCN1Cc2cc3[nH]c(-c4c(N[C@@H](C)Cc5cc(F)ccc5C)cc[nH]c4=O)nc3cc2C1=O` [drawing 355], for which the IC50 on IGF1R was 10 to 100 nM; at ALK, under 10 nM; in the data set with H929, 250 to 1000 nM; in the data set on Karpas299, 10 to 100 nM; in the data set with WI38 it was over 1000 nM; in the data set on JB6, under 10 nM. Moreover, the half-inhibitory concentration (IC50) with UConn was in the range of 10 to 100 nM.

For the molecule `C[C@@H](Cc1cc(F)cc(F)c1F)Nc1cc[nH]c(=O)c1-c1nc2cc3c(cc2[nH]1)CN(CCN(C)C)C3=O` [drawing 356], the IC50 was 100 to 250 nM at IGF1R; under 10 nM on ALK; 250 to 1000 nM in the data set on H929; 10 to 100 nM in the data set on Karpas299; over 1000 nM with WI38; 10 to 100 nM in the data set on JB6. Moreover, in the data set with UConn, the IC50 fell in the range of 10 to 100 nM.

Consider `Cc1ccc(F)cc1C[C@H](C)Nc1cc[nH]c(=O)c1-c1nc2cc3c(cc2[nH]1)CN(CCN(C)C)C3=O` [drawing 357], for which the IC50 was 100 to 250 nM at IGF1R; under 10 nM on ALK; 250 to 1000 nM in the data set with H929; 10 to 100 nM in the data set with Karpas299; over 1000 nM with WI38; 10 to 100 nM in the data set on JB6. Also, the IC50 with UConn is 10 to 100 nM.

For `C[C@@H](Cc1cc(F)cc(F)c1F)Nc1cc[nH]c(=O)c1-c1nc2cc3c(cc2[nH]1)CN(CCN1CCCC1)C3=O` [drawing 358], the IC50 is 250 to 1000 nM at IGF1R; 10 to 100 nM on ALK; 250 to 1000 nM in the data set on H929; 10 to 100 nM in the data set with Karpas299; over 1000 nM with WI38; 10 to 100 nM in the data set on JB6. In addition, the IC50 with UConn is 10 to 100 nM.

`C[C@@H](Cc1cc(F)ccc1Br)Nc1cc[nH]c(=O)c1-c1nc2cc3c(cc2[nH]1)CN(CCN1CCCC1)C3=O` [drawing 359]: the half-maximal inhibitory concentration (IC50) on IGF1R was 250 to 1000 nM; at ALK it was 10 to 100 nM; in the data set with H929, 250 to 1000 nM; in the data set on Karpas299 it was 10 to 100 nM; with WI38 it was over 1000 nM; in the data set on JB6, 10 to 100 nM. Moreover, the IC50 in the data set with UConn is 100 to 250 nM.

On to `Cc1ccc(F)cc1C[C@H](C)Nc1cc[nH]c(=O)c1-c1nc2cc3c(cc2[nH]1)C(=O)N(CCN1CCCC1)C3` [drawing 364], for which the “hERG Inhibition” value on hERG (25) amounted to 22.5; on hERG (100), 28; on hERG (1000), 50.4; on hERG (column head 500), 38.5.

For the molecule `Cc1ccc(F)cc1C[C@H](C)Nc1cc[nH]c(=O)c1-c1nc2cc3c(cc2[nH]1)CN(CCN(C)C)C3=O` [drawing 365], the “hERG Inhibition” value at hERG (25) amounted to 5.8; on hERG (100), 8.8; on hERG (1000), 6.8; on hERG (column head 500), 11.1; at hERG (column head 3000) it was 27.1; at hERG (column head 5000), 50.0.

Regarding `C[C@@H](Cc1cc(F)cc(F)c1F)Nc1cc[nH]c(=O)c1-c1nc2cc3c(cc2[nH]1)CN(CCN1CCCC1)C3=O` [drawing 366], the “hERG Inhibition” value on hERG (25) is on record as 6.00; on hERG (100) it was 9.7; on hERG (1000) it was 7.30; on hERG (column head 500), 7.10; at hERG (column head 3000), 33.20; on hERG (column head 5000), 57.80.

For `C[C@@H](Cc1cc(F)cc(F)c1F)Nc1cc[nH]c(=O)c1-c1nc2cc3c(cc2[nH]1)CN(CCN(C)C)C3=O` [drawing 367], the figures for the “hERG Inhibition” value at hERG (25), on hERG (100) and on hERG (column head 500) were 6.60, 10.20 and 13.10, respectively.

Source of the values: patent US9249147B2, “Tyrosine kinase inhibitors” (CHEMBRIDGE CORPORATION, priority 2008, dated 2016).
